# Reference: patent US11319343B2, “Method of treatment” (ROYAL MELBOURNE INSTITUTE OF TECHNOLOGY, priority 2017, dated 2022)
# Residues, ends and D or L forms follow the SMILES beside them. No end group written: not given here.
# Key:
# [1] = molecular target: T1, TLR7 (Mus musculus, UniProt P58681); test: TLR7 agonist response (cytokine expression) in bone marrow derived macrophages with C98i peptides; type: cell-based; conditions: for inhibition of TLR7 agonist, imiquimod, response in vitro (IL-6 mRNA expression): peptides 100 μM + 10 μg/ml imiquimod, no TAT
# T1 construct: endogenous in cells; host or cells: immortalized bone marrow-derived macrophages (BMDMs) or RAW264.7 cells
# T1 sequence (P58681 27-1050): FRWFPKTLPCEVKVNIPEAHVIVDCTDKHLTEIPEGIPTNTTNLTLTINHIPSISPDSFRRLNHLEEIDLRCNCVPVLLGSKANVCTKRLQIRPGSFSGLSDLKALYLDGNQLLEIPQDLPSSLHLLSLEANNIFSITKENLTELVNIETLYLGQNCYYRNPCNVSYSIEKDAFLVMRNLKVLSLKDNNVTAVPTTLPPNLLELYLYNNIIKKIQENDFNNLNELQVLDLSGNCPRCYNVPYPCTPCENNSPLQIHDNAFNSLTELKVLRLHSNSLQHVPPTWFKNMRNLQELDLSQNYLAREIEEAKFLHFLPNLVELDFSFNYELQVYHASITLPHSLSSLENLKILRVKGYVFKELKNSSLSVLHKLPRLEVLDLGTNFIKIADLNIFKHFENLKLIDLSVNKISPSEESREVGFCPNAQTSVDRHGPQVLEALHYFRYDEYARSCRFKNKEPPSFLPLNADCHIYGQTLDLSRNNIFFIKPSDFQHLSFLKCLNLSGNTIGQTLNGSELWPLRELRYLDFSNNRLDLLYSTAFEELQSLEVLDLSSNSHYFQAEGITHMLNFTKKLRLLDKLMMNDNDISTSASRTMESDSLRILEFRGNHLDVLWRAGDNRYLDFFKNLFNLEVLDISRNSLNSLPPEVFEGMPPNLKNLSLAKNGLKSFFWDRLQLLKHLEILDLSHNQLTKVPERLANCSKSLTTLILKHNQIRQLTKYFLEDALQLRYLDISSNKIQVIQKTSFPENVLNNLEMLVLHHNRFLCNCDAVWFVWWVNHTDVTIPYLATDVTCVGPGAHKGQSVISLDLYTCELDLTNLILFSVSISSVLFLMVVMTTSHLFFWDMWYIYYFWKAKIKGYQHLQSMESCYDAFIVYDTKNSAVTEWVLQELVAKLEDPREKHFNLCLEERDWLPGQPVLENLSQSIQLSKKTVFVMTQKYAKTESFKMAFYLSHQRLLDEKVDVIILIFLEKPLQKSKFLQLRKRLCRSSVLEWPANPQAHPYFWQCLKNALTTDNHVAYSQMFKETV
# [2] = molecular target: T2, xanthine oxidase (Bos taurus, UniProt P80457); test: Xanthine/xanthine oxidase cell-free superoxide assay (ROS scavenging); type: biochemical; conditions: 1 μM
# T2 construct: purchased Sigma X1875
# T2 sequence (P80457 whole entry): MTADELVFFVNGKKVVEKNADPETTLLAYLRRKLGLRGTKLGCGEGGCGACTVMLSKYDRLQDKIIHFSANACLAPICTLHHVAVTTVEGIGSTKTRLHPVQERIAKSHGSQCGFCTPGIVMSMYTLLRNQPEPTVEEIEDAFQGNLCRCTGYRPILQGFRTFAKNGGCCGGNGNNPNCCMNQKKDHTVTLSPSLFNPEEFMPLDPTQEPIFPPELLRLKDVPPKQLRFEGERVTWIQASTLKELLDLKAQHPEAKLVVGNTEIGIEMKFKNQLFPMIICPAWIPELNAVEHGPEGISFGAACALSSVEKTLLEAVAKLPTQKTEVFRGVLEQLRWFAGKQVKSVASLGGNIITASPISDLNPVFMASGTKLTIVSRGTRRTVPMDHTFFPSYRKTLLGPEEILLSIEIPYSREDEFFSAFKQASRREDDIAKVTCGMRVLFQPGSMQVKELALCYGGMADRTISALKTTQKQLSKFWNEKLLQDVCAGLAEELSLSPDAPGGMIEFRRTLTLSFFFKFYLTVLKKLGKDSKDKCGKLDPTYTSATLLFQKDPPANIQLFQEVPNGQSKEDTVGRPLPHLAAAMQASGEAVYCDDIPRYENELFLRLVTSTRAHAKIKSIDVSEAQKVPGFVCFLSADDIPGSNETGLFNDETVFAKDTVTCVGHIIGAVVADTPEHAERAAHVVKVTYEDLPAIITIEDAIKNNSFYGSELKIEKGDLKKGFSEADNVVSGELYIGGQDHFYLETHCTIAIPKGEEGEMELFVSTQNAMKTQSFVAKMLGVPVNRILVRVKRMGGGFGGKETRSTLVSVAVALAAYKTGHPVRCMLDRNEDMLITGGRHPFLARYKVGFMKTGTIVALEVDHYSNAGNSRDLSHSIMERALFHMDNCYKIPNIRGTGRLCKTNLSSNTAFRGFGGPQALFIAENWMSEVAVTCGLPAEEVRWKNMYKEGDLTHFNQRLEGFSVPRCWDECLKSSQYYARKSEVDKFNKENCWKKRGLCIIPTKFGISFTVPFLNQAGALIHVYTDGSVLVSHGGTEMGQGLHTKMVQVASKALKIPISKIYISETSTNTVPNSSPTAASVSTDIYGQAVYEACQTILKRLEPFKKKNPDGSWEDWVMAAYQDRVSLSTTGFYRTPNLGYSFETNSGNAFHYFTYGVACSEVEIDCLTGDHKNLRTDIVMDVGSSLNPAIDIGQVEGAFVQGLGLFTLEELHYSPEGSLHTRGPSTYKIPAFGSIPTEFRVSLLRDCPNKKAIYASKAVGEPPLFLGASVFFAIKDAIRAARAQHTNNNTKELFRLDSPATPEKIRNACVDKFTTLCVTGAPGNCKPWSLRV
# Method: Briefly, Krebs-HEPES buffer containing L-O12 (100 μM) was added into a 96-well Optiview plate. Following this, 0.1% w/v DMSO, unconjugated gp91dstat (Ugp91ds-TAT, 1 μM) or cholestanol-conjugated gp91ds-TAT (1 μM) were added in combination with Xanthine (100 μM). Immediately after xanthine oxidase (0.03 U/mL) was added, photon emission [relative light units (RLU)/s] was detected using the Chameleon (Trademark) luminescence detector (Hidex, model 425105, Finland) and recorded from each well for 1 s over 60 cycles. Individual data points for each group were derived from the average values of the three replicates minus the respective blank controls. Data are represented as raw values.
# [3] = system: HKx31 influenza A virus; conditions: mouse, in vivo
# [4] = system: NOX2 oxidase; test: NOX2 oxidase assembly (NOX2-p47phox association), confocal fluorescence microscopy; conditions: pre-treatment: Dynasore 100 μM, bafilomycin A 100 nM, PD98059 30 μM
# [5] = system: mouse primary alveolar macrophages; type: cell-based
# [6] = system: PKC; test: Cytosolic PKC activity, FRET biosensor cytoCKAR; type: cell-based, mouse; conditions: WT macrophages, imiquimod, within 5 min
# [7] = system: TLR7 responses; type: in vivo; conditions: imiquimod 50 μg/mouse intranasally, 24 h
# [8] = system: macrophage mitochondrial superoxide; test: Macrophage mitochondrial superoxide production; type: cell-based; conditions: TLR7 activation with imiquimod
# [9] = molecular target: T1, TLR7; type: cell-based; conditions: for IFN-β, IL-1β, TNF-α and IL-6 expression in response to imiquimod: apocynin 300 μM pre-treatment, SOD 300 U/mL (basal or imiquimod-stimulated), catalase 1000 U/mL
# [10] = system: human alveolar macrophages; type: cell-based; conditions: imiquimod 10 μg/mL, AMs from human
# [11] = system: pERK1/2; test: Cytosolic pERK1/2 activity, FRET biosensor; type: cell-based, mouse; conditions: TLR7-dependent manner
# [12] = Cell viability after C98i peptides; type: cell-based
# [13] = system: TLR3; type: cell-based, mouse; conditions: poly I:C 25 μg/mL; apocynin pre-treatment
# [14] = system: TLR9; type: cell-based, mouse; conditions: CpG 10 μg/mL; apocynin
# [15] = system: influenza A virus strain HKx31 (H3N2); type: cell-based
# [16] = system: TLR7; type: cell-based, mouse
compound,measurement,setting,value
RANC-NH2,"inhibition of TLR7 agonist, imiquimod, response in vitro (IL-6 mRNA expression)",[1],none
YGRKKRRQRRRCLVPNDCRLV-NH2 [scrambled C98i],inhibition of TLR7 agonist (imiquimod),[1]; scrambled sequence with TAT,not able to inhibit
RCNC—NH2 (RCNC-NH2; cysteine pairing not given here),"inhibition of TLR7 agonist, imiquimod, response in vitro (IL-6 mRNA expression)",[1],none
Ac-Asp(OChol)-PEG4-PEG3-PEG4-gp91-NH2 [Cgp91ds-TAT],ROS scavenging properties,[2],not attributed to enhanced ROS scavenging properties
same,airway inflammation,[3],almost abolished
same,decrease in lung influenza A viral burden,[3],"~10,000 fold"
same,lung IFN-β mRNA levels compared to the control virus group,[3],significantly increased
same,reduction in airways inflammation,[3],~40%
same,superoxide production in BALF inflammatory cells,[3],almost abolished
same,weight loss caused by influenza A virus at day 3,[3],significantly reduced the weight loss
CO/C1=C\C(C)=C\[C@@H](C)[C@@H](O)[C@@H](C)C/C(C)=C/C=C/[C@H](OC)[C@@H]([C@@H](C)[C@@H](O)[C@H](C)[C@@]2(O)C[C@@H](O)[C@H](C)[C@@H](C(C)C)O2)OC1=O [bafilomycin A],co-location (association) of NOX2 and p47phox caused by influenza virus,[4],reduced
same,NOX2 dependent ROS production in response to virus infection and to imiquimod,[5],abolished
same,endosomal ROS production (OxyBURST) in response to influenza A virus,[5],abolished the LysoTracker fluorescence and endosomal ROS production
CC(C)Cn1cnc2c(N)nc3ccccc3c21 [imiquimod],cytosolic PKC activity,[6],elevated cytosolic PKC activity
same,"lung IFN-β, IL-1β, IL-6 and TNF-α",[7]; NOX2−/y mice,elevated levels
same,airway inflammation,[7]; WT and NOX2−/y mice,no discernible alterations
same,macrophage mitochondrial superoxide production,[8],failed to increase
same,"IFN-β, IL-1β, TNF-α and IL-6 expression","[9]; imiquimod alone, WT macrophages",significant elevation
same,endosomal ROS production caused by the agonist,[10],markedly increased endosomal ROS
same,endosomal ROS production caused by the agonist,[5],markedly increased endosomal ROS
same,cytosolic pERK1/2,[11],increased cytosolic pERK1/2
CC(C)C[C@H](NC(=O)[C@@H](NC(=O)[C@@H]1CCCN1C(=O)[C@@H](NC(=O)[C@H](CS)NC(=O)[C@H](CC(N)=O)NC(=O)[C@H](CS)NC(=O)[C@H](CCCNC(=N)N)NC(=O)[C@H](CC(C)C)NC(=O)[C@H](CC(=O)O)NC(=O)[C@H](CCCNC(=N)N)NC(=O)[C@H](CCCNC(=N)N)NC(=O)[C@H](CCCNC(=N)N)NC(=O)[C@H](CCC(N)=O)NC(=O)[C@H](CCCNC(=N)N)NC(=O)[C@H](CCCNC(=N)N)NC(=O)[C@H](CCCCN)NC(=O)[C@H](CCCCN)NC(=O)[C@H](CCCNC(=N)N)NC(=O)CNC(=O)[C@@H](N)Cc1ccc(O)cc1)C(C)C)C(C)C)C(N)=O [C98i] (H-YGRKKRRQRRRDLRCNCVPVL-NH2),cell viability,[12],no adverse effect
YGRKK-RRQRR-RCSTR-IRRQL-NH2 [Ugp91ds-TAT],decrease in lung influenza A viral burden,[3],"~10,000 fold"
same,lung IFN-β mRNA levels compared to the control virus group,[3],failed to do so
same,superoxide production in BALF inflammatory cells,[3],almost abolished
same,weight loss caused by influenza A virus at day 3,[3],significantly reduced the weight loss
"COc1cc(C(C)=O)ccc1O [apocynin, 4′-Hydroxy-3′-methoxy acetophenone]","IFN-β, IL-1β, TNF-α and IL-6 expression in response to imiquimod",[9]; WT macrophages,significantly enhanced
same,"IFN-β, IL-1β, TNF-α and IL-6 expression in response to poly I:C",[13],suppressed
same,"increases in IFN-β, IL-1β, TNF-α and IL-6 triggered by CpG",[14],unaffected
CC(=O)c1ccc2c(c1)Nc1ccccc1S2 [ML171],endosomal ROS production (OxyBURST) in response to influenza A virus,[5],unaffected
O=C(N/N=C/c1ccc(O)c(O)c1)c1cc2ccccc2cc1O [Dynasore],influenza nucleoprotein (NP) fluorescence,[15],almost abolished
same,catalase-dependent increase in cytokines,[9]; WT macrophages treated with Dynasore (100 μM),significantly suppressed
same,co-location (association) of NOX2 and p47phox caused by influenza virus,[4],reduced
RANA-NH2,"inhibition of TLR7 agonist, imiquimod, response in vitro (IL-6 mRNA expression)",[1],none
COc1cccc(-c2cc(=O)c3ccccc3o2)c1N [PD98059],co-location (association) of NOX2 and p47phox caused by influenza virus,[4],did not influence
same,endosomal ROS production (OxyBURST) in response to influenza A virus,[5],did not influence
catalase,IFN-β and IL-1β expression,"[9]; 1 hr pulse catalase 1000 U/mL, after 24 h, WT macrophages",significant elevations
same,"IFN-β, IL-1β, TNF-α and IL-6 expression in response to imiquimod",[9]; WT macrophages,significantly increased
same,cytokine expression in cells expressing mutated TLR7,[16],little or no effect
same,"TLR7, TREML4 or NLRP3 expression",[16]; catalase,no effect
same,cytokine expression in cells with WT TLR7 or TLR7C445A,"[16]; catalase 1000 U/mL, transfected TLR7−/− macrophages",markedly increased
"CC(C)C[C@H](NC(=O)[C@@H](NC(=O)[C@@H]1CCCN1C(=O)[C@@H](NC(=O)[C@H](CS)NC(=O)[C@H](CC(N)=O)NC(=O)[C@H](CS)NC(=O)[C@H](CCCNC(=N)N)NC(=O)[C@H](CC(C)C)NC(=O)[C@@H](N)CC(=O)O)C(C)C)C(C)C)C(N)=O [C98i no TAT, DLRCNCVPVL-NH2] (H-DLRCNCVPVL-NH2)",cell viability,[12],no adverse effect
RCNA-NH2,"inhibition of TLR7 agonist, imiquimod, response in vitro (IL-6 mRNA expression)",[1],none
